In this experiment the target is T1, WIZ protein (HiBit-WIZ fusion protein) (Homo sapiens, UniProt O95785+Q96SW2).
T1 construct: expressed in transfected cells
Description: Quantification of WIZ protein levels in HiBit tag fusion protein assay (WIZ HiBit assay in 293T cells). In kind it is cell-based. Particulars: for Dmax at 25 µM / remaining activity at 25 µM: HEK-293T, 293T cells; for Dmax at 25 µM: 100 − Amax, read-out: % degradation of WIZ (100 − Amax); for remaining activity at 25 µM: DMSO-normalized, curve-fitted percentage of WIZ-HiBit remaining at 25 uM, read-out: WIZ Amax; for DC50: WIZ HiBit assay in 293T cells, 10-point, 5-fold dose response, highest concentration 25 μM, about 18 hours, read-out: WIZ AC50. In short, it runs like this: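 Luminescence after LgBit complementation quantified remaining HiBit-WIZ in lysates of single-copy stable 293T lines. Cells dosed ~18 h at 37 °C with 10-point, 5-fold dilutions (highest 25 μM); DMSO set to 100%, fitted curve gave % remaining at 25 μM (Amax).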

T1 sequence (O95785 whole entry, the tested form may be a part): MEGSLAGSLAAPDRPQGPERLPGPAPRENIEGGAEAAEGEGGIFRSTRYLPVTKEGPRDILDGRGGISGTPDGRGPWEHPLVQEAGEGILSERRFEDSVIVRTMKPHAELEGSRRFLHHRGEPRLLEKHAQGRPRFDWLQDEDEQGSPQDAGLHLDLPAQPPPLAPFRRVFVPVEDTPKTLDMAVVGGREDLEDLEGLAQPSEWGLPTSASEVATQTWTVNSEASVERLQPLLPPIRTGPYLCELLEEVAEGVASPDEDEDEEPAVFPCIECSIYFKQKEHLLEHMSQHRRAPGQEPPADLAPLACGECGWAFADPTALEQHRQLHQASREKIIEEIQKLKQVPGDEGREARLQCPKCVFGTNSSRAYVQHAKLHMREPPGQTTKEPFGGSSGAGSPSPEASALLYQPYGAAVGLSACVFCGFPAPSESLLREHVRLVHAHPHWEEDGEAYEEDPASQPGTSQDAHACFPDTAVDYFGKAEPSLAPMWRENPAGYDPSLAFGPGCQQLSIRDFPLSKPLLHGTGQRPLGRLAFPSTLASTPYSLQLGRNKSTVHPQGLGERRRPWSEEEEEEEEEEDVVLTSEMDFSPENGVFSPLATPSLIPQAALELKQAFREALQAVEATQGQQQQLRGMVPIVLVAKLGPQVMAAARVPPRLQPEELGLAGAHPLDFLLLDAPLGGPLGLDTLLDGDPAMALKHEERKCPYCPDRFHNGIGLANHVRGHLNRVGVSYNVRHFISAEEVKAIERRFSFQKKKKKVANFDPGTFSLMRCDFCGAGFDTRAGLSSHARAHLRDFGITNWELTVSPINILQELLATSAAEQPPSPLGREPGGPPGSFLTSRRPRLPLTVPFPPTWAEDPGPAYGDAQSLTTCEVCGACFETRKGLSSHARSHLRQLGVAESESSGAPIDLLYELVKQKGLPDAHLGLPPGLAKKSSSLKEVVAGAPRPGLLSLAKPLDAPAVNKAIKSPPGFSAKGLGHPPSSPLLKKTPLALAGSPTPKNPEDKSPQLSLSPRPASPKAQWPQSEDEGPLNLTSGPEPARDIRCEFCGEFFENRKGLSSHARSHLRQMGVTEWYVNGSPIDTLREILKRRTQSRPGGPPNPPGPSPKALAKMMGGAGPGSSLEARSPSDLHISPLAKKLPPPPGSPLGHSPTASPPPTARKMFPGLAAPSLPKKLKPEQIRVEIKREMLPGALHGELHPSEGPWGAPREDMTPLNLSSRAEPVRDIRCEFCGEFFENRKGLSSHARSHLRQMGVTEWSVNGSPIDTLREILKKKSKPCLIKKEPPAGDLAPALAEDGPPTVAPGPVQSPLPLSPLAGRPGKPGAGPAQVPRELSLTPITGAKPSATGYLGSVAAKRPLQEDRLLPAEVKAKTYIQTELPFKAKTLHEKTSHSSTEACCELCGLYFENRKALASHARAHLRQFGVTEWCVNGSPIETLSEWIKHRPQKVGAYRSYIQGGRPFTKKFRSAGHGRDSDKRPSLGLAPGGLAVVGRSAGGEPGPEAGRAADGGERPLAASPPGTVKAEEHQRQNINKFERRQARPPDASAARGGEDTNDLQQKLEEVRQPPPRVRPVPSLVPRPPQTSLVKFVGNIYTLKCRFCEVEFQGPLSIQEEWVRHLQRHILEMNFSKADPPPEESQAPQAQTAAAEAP
T1 sequence (Q96SW2 whole entry, the tested form may be a part): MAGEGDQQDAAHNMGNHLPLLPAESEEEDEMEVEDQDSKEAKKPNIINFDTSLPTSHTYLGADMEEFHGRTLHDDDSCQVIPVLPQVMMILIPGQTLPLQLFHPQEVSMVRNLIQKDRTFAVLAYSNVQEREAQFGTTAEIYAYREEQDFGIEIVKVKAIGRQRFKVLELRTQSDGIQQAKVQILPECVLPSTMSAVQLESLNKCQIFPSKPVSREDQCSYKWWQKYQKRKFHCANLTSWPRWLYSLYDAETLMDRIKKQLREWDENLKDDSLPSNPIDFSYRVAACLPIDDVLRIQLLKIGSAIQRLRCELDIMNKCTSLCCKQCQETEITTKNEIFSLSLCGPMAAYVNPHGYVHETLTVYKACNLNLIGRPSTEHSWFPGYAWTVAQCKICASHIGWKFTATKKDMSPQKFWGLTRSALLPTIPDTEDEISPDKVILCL
T1 sequence (Q16531 whole entry partner, the tested form may be a part): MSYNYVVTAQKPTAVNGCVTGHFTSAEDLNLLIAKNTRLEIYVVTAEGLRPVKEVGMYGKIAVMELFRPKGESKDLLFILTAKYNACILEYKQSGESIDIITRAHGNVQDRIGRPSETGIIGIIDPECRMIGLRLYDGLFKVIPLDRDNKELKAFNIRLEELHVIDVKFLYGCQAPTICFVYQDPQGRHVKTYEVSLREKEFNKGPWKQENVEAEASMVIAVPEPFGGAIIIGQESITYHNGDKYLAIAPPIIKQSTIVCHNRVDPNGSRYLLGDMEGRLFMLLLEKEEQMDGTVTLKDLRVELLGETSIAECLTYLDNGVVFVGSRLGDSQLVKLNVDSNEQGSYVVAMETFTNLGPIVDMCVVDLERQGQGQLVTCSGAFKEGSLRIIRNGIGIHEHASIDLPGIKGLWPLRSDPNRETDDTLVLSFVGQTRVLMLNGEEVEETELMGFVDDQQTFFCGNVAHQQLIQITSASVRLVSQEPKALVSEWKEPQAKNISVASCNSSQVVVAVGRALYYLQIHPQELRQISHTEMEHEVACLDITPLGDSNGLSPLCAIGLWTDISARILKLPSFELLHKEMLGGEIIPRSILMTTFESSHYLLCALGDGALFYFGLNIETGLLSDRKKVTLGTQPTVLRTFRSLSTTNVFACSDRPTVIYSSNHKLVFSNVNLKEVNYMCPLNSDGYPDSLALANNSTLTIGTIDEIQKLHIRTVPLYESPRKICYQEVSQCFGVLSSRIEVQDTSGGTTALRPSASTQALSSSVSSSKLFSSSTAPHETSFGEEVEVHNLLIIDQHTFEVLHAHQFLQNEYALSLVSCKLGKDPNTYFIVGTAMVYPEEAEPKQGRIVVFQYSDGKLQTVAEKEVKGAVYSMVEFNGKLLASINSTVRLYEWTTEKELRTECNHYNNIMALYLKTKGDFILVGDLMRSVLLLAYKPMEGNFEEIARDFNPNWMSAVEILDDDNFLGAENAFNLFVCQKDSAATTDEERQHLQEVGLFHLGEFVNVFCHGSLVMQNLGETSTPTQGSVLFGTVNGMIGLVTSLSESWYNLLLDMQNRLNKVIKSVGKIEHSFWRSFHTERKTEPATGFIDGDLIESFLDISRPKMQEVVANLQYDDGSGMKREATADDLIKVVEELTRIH

In the case of `CC(C)CN1CC[C@H](Cc2ccn3ncc(N4CCC(=O)NC4=O)c3c2)C[C@H]1C` [Example 153], the Dmax at 25 µM was determined as 86%, the remaining activity at 25 µM stood at 14% and the DC50 amounted to 0.014 µM.

For the molecule `O=C1CCN(c2cnn3ccc(CN4CCN(CC5CCCCC5)C(=O)C4)cc23)C(=O)N1` [Example 242, 1-(5-((4-(cyclohexylmethyl)-3-oxopiperazin-1-yl)methyl)pyrazolo[1,5-a]pyridin-3-yl)dihydropyrimidine-2,4(1H,3H)-dione], the Dmax at 25 µM is 7%, the remaining activity at 25 µM worked out at 93% and the DC50 worked out at 1.6 µM.

On to `CC(c1ccccc1)N1CCC(Cc2ccn3ncc(N4CCC(=O)NC4=O)c3c2)CC1` (stereo not drawn) [Example 26, 1-(5-((1-(1-phenylethyl)piperidin-4-yl)methyl)pyrazolo[1,5-a]pyridin-3-yl)dihydropyrimidine-2,4(1H,3H)-dione], for which the Dmax at 25 µM was found to be 76%, the remaining activity at 25 µM was 24% and the DC50 worked out at 0.297 µM.

As to `C[C@@H]1C[C@H](Cc2ccn3ncc(N4CCC(=O)NC4=O)c3c2)CCN1CC1CCC(F)(F)CC1` [Example 78], the Dmax at 25 µM came to 83%, the remaining activity at 25 µM worked out at 17% and the DC50 stood at 0.01 µM.

Turning to `O=C1CCN(c2cnn3ccc(CN4CCN(CC5CC5)CC4)cc23)C(=O)N1` [Example 189, 1-(5-((4-(cyclopropylmethyl)piperazin-1-yl)methyl)pyrazolo[1,5-a]pyridin-3-yl)dihydropyrimidine-2,4(1H,3H)-dione], the Dmax at 25 µM was found to be 71%, the remaining activity at 25 µM worked out at 29% and the DC50 is 0.191 µM.

Regarding `O=C1CCN(c2cnn3ccc(CN4CCCN(CC5CCCCC5)CC4)cc23)C(=O)N1` [Example 249, 1-(5-((4-(cyclohexylmethyl)-1,4-diazepan-1-yl)methyl)pyrazolo[1,5-a]pyridin-3-yl)dihydropyrimidine-2,4(1H,3H)-dione], the Dmax at 25 µM worked out at 41%, the remaining activity at 25 µM turned out to be 59% and the DC50 was determined as 0.3 µM.

As for `O=C1CCN(c2cnn3ccc(CN4CCN(Cc5ccccc5)CC4)cc23)C(=O)N1` [Example 165], the Dmax at 25 µM stood at 69%, the remaining activity at 25 µM was 31% and the DC50 was determined as 0.198 µM.

Consider `O=C1CCN(c2cnn3ccc(CC4CCN(Cc5nccs5)CC4)cc23)C(=O)N1` [Example 60, 1-(5-((1-(thiazol-2-ylmethyl)piperidin-4-yl)methyl)pyrazolo[1,5-a]pyridin-3-yl)dihydropyrimidine-2,4(1H,3H)-dione], for which the Dmax at 25 µM worked out at 61%, the remaining activity at 25 µM came out at 39% and the DC50 is 0.034 µM.

Consider `CC(C)(C1CCOCC1)N1CCC(Cc2ccn3ncc(N4CCC(=O)NC4=O)c3c2)CC1` [Example 136, 1-(5-((1-(2-(tetrahydro-2H-pyran-4-yl)propan-2-yl)piperidin-4-yl)methyl)pyrazolo[1,5-a]pyridin-3-yl)dihydropyrimidine-2,4(1H,3H)-dione], for which the Dmax at 25 µM came out at 86%, the remaining activity at 25 µM was 14% and the DC50 amounted to 0.033 µM.

Consider `CC(C)CC(C)(C)N1CCC(Cc2ccn3ncc(N4CCC(=O)NC4=O)c3c2)CC1` [Example 139, 1-(5-((1-(2,4-dimethylpentan-2-yl)piperidin-4-yl)methyl)pyrazolo[1,5-a]pyridin-3-yl)dihydropyrimidine-2,4(1H,3H)-dione], for which the Dmax at 25 µM came out at 83%, the remaining activity at 25 µM amounted to 17% and the DC50 is 0.003 µM.

As to `CCC(C)S(=O)(=O)N1CCC(Cc2ccn3ncc(N4CCC(=O)NC4=O)c3c2)CC1` (stereo not drawn) [Example 86], the Dmax at 25 µM worked out at 80%, the remaining activity at 25 µM is 20% and the DC50 worked out at 0.027 µM.

Take `O=C1CCN(c2cnn3ccc(CN4C[C@H]5C[C@@H]4CN5CC4CCCCC4)cc23)C(=O)N1` [Example 234, 1-(5-(((1R,4R)-5-(cyclohexylmethyl)-2,5-diazabicyclo[2.2.1]heptan-2-yl)methyl)pyrazolo[1,5-a]pyridin-3-yl)dihydropyrimidine-2,4(1H,3H)-dione]: the Dmax at 25 µM amounted to 42%, the remaining activity at 25 µM stood at 58% and the DC50 was 0.942 µM.

With `O=C1CCN(c2cnn3ccc(CC4CCN(Cc5ccc(F)cc5F)CC4)cc23)C(=O)N1` [Example 50, 1-(5-((1-(2,4-difluorobenzyl)piperidin-4-yl)methyl)pyrazolo[1,5-a]pyridin-3-yl)dihydropyrimidine-2,4(1H,3H)-dione], the Dmax at 25 µM amounted to 66%, the remaining activity at 25 µM is 34% and the DC50 is 0.113 µM.

Regarding `O=C1CCN(c2cnn3ccc(CC4(F)CCN(CC5CCC5)CC4)cc23)C(=O)N1` [Example 125, 1-(5-((1-(cyclobutylmethyl)-4-fluoropiperidin-4-yl)methyl)pyrazolo[1,5-a]pyridin-3-yl)dihydropyrimidine-2,4(1H,3H)-dione], the Dmax at 25 µM is 55%, the remaining activity at 25 µM is 45% and the DC50 was found to be 0.596 µM.

Turning to `Cc1ccccc1CN1CCN(Cc2ccn3ncc(N4CCC(=O)NC4=O)c3c2)CC1` [Example 167], the Dmax at 25 µM is 57%, the remaining activity at 25 µM was determined as 43% and the DC50 amounted to 0.286 µM.

`C[C@H]1C[C@H](Cc2ccn3ncc(-n4cc(Cl)c(=O)[nH]c4=O)c3c2)CCN1CC1CCC(F)(F)CC1` [Example 352, 5-chloro-1-(5-(((2S,4R)-1-((4,4-difluorocyclohexyl)methyl)-2-methylpiperidin-4-yl)methyl)pyrazolo[1,5-a]pyridin-3-yl)pyrimidine-2,4(1H,3H)-dione]: the Dmax at 25 µM was 90%, the remaining activity at 25 µM was 10% and the DC50 is 0.192 µM.

For the molecule `C[C@H]1CN(Cc2ccn3ncc(N4CCC(=O)NC4=O)c3c2)CCN1CC1(C)CCC1` [Example 322, (S)-1-(5-((3-methyl-4-((1-methylcyclobutyl)methyl)piperazin-1-yl)methyl)pyrazolo[1,5-a]pyridin-3-yl)dihydropyrimidine-2,4(1H,3H)-dione], the Dmax at 25 µM was 86%, the remaining activity at 25 µM came to 14% and the DC50 was 0.031 µM.

As to `O=C1CCN(c2cnn3ccc(CC4CCN(C(=O)Oc5ccccc5)CC4)cc23)C(=O)N1` [Example 94], the Dmax at 25 µM turned out to be 62%, the remaining activity at 25 µM stood at 38% and the DC50 worked out at 3.99 µM.

For `O=C1CCN(c2cnn3ccc(CN4CCN5CCC[C@H]5C4)cc23)C(=O)N1` [Example 260, (S)-1-(5-((hexahydropyrrolo[1,2-a]pyrazin-2(1H)-yl)methyl)pyrazolo[1,5-a]pyridin-3-yl)dihydropyrimidine-2,4(1H,3H)-dione], the Dmax at 25 µM was 68%, the remaining activity at 25 µM was 32% and the DC50 was 0.796 µM.

For `CC(C)CN1CCC(C(C)c2ccn3ncc(N4CCC(=O)NC4=O)c3c2)CC1` (stereo not drawn) [Example 267, 1-(5-(1-(1-isobutylpiperidin-4-yl)ethyl)pyrazolo[1,5-a]pyridin-3-yl)dihydropyrimidine-2,4(1H,3H)-dione], the Dmax at 25 µM is 86%, the remaining activity at 25 µM turned out to be 14% and the DC50 amounted to 0.1 µM.

`C[C@@H]1CN(CC2CCOCC2)CCN1Cc1ccn2ncc(N3CCC(=O)NC3=O)c2c1` [Example 219]: the Dmax at 25 µM is 75%, the remaining activity at 25 µM stood at 25% and the DC50 was 0.212 µM.

For `CO[C@H]1C[C@@H](CN2CCN(Cc3ccn4ncc(N5CCC(=O)NC5=O)c4c3)C[C@@H]2C)C1` [Example 317, 1-(5-(((S)-4-(((1s,3R)-3-methoxycyclobutyl)methyl)-3-methylpiperazin-1-yl)methyl)pyrazolo[1,5-a]pyridin-3-yl)dihydropyrimidine-2,4(1H,3H)-dione], the Dmax at 25 µM stood at 80%, the remaining activity at 25 µM is 20% and the DC50 came out at 0.031 µM.

For the molecule `C[C@H]1CN(Cc2ccn3ncc(N4CCC(=O)NC4=O)c3c2)CCN1CC1CCCO1` (stereo partly drawn) [Example 209], the Dmax at 25 µM amounted to 74%, the remaining activity at 25 µM is 26% and the DC50 is 0.38 µM.

`C[C@@H]1C[C@@H](Cc2ccn3ncc(N4CCC(=O)NC4=O)c3c2)CCN1CC1CCOCC1` [Example 154]: the Dmax at 25 µM is 78%, the remaining activity at 25 µM was 22% and the DC50 worked out at 0.041 µM.

In the case of `CC(C)S(=O)(=O)N1C[C@H]2C[C@@H]1CN2Cc1ccn2ncc(N3CCC(=O)NC3=O)c2c1` [Example 239, 1-(5-(((1R,4R)-5-(isopropylsulfonyl)-2,5-diazabicyclo[2.2.1]heptan-2-yl)methyl)pyrazolo[1,5-a]pyridin-3-yl)dihydropyrimidine-2,4(1H,3H)-dione], the Dmax at 25 µM turned out to be 0%, the remaining activity at 25 µM was determined as 100% and the DC50 is > 25 µM.

As for `CCC(CC)N1CCC(Cc2ccn3ncc(N4CCC(=O)NC4=O)c3c2)CC1` [Example 20, 1-(5-((1-(pentan-3-yl)piperidin-4-yl)methyl)pyrazolo[1,5-a]pyridin-3-yl)dihydropyrimidine-2,4(1H,3H)-dione], the Dmax at 25 µM amounted to 79%, the remaining activity at 25 µM turned out to be 21% and the DC50 was 0.022 µM.

Regarding `CCC(C)CN1CCC(Cc2ccn3ncc(N4CCC(=O)NC4=O)c3c2)CC1` (stereo not drawn) [Example 9, 1-(5-((1-(2-methylbutyl)piperidin-4-yl)methyl)pyrazolo[1,5-a]pyridin-3-yl)dihydropyrimidine-2,4(1H,3H)-dione], the Dmax at 25 µM is 84%, the remaining activity at 25 µM stood at 16% and the DC50 worked out at 0.031 µM.

The values are drawn from patent publication US11787785B2 (NOVARTIS AG, priority 2021, dated 2023).
